Data: ChEMBL document CHEMBL1201862, “PubChem BioAssay data set” (2004)
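Step 1: Grow cells in 96-well plates. Step 2: Expose to compound for 48 hours at 5 concentrations. Step 3: Interpolate endpoints linearly; if unreached, use highest concentration. Abbreviation: GI50, concentration required for 50% inhibition of growth.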 The source made the active and inactive calls. Rule as the data show it: active = GI50 up to about 1.1 µM and inactive = higher.

How the values were obtained:
Assay in all cases: DTP human tumour cell line panel, 48 h
[1] = test system: A549
[2] = test system: HCT-116
[3] = test system: OVCAR-8
[4] = test system: MOLT-4
[5] = test system: HCT-15
[6] = test system: OVCAR-3
[7] = test system: CAKI-1
[8] = test system: CCRF-CEM
[9] = test system: SF-539
[10] = test system: SF-268
[11] = test system: KM12
[12] = test system: LOX IMVI
[13] = test system: NCI-H460
[14] = test system: RXF 393
[15] = test system: SNB-19
[16] = test system: Hs-578T
[17] = test system: ACHN
[18] = test system: SW-620
[19] = test system: TK-10
[20] = test system: RPMI-8226
[21] = test system: K562
[22] = test system: IGROV-1
[23] = test system: SNB-75
[24] = test system: COLO 205
[25] = test system: HT-29
[26] = test system: T47D
[27] = test system: U-251
[28] = test system: DU-145
[29] = test system: MCF7
[30] = test system: EKVX
[31] = test system: HOP-92
[32] = test system: MDA-N
[33] = test system: MDA-MB-231
[34] = test system: HCC 2998
[35] = test system: A498
[36] = test system: SF-295
[37] = test system: PC-3
[38] = test system: NCI-H522
[39] = test system: Malme-3M
[40] = test system: MDA-MB-435
[41] = test system: HOP-62
[42] = test system: UACC-62
[43] = test system: M14
[44] = test system: NCI/ADR-RES
[45] = test system: BT-549
[46] = test system: OVCAR-4
[47] = test system: 786-0
[48] = test system: SK-MEL-2
[49] = test system: UACC-257
[50] = test system: SN12C
[51] = test system: SK-OV-3
[52] = test system: SK-MEL-28
[53] = test system: NCI-H23
[54] = test system: HL-60
[55] = test system: OVCAR-5
[56] = test system: SK-MEL-5
[57] = test system: NCI-H226
[58] = test system: UO-31

`O=C(N/N=C(COc1ccccc1Cl)\N=C\c1ccncc1)c1ccncc1` was tested, and the GI50 [1] was > 100 µM (inactive), the GI50 [2] was > 100 µM (inactive) and the GI50 [3] was > 100 µM (inactive). The GI50 [4] was 61.1 µM (inactive), the GI50 [5] was over 100 µM and the GI50 [6] was > 100 µM (inactive). For the same compound, the GI50 [7] was > 100 µM (inactive), the GI50 [8] was > 100 µM (inactive) and the GI50 [9] was > 100 µM (inactive). For the same compound, the GI50 [10] was > 100 µM (inactive), the GI50 [11] was > 100 µM (inactive) and the GI50 [12] was > 100 µM (inactive). For the same compound, the GI50 [13] was > 100 µM (inactive), the GI50 [14] was > 100 µM (inactive) and the GI50 [15] was > 100 µM (inactive). For the same compound, the GI50 [16] was > 100 µM (inactive), the GI50 [17] was > 100 µM (inactive) and the GI50 [18] was > 100 µM (inactive). The GI50 [19] was > 100 µM (inactive), the GI50 [20] was > 100 µM (inactive) and the GI50 [21] was > 100 µM (inactive). The GI50 [22] was > 100 µM (inactive), the GI50 [23] was 15.9 µM (inactive) and the GI50 [24] was > 100 µM (inactive). The GI50 [25] was > 100 µM (inactive), the GI50 [26] was > 100 µM (inactive) and the GI50 [27] was > 100 µM (inactive). For the same compound, the GI50 [28] was > 100 µM (inactive), the GI50 [29] was > 100 µM (inactive) and the GI50 [30] was > 100 µM (inactive). The GI50 [31] was > 100 µM (inactive), the GI50 [32] was > 100 µM (inactive) and the GI50 [33] was > 100 µM (inactive). For the same compound, the GI50 [34] was > 100 µM (inactive), the GI50 [35] was > 100 µM (inactive) and the GI50 [36] was > 100 µM (inactive). For the same compound, the GI50 [37] was > 100 µM (inactive), the GI50 [38] was > 100 µM (inactive) and the GI50 [39] was > 100 µM (inactive). For the same compound, the GI50 [40] was > 100 µM (inactive), the GI50 [41] was > 100 µM (inactive) and the GI50 [42] was > 100 µM (inactive). The GI50 [43] was > 100 µM (inactive), the GI50 [44] was > 100 µM (inactive) and the GI50 [45] was > 100 µM (inactive). The GI50 [46] was > 100 µM (inactive), the GI50 [47] was > 100 µM (inactive) and the GI50 [48] was > 100 µM (inactive). The GI50 [49] was > 100 µM (inactive), the GI50 [50] was > 100 µM (inactive) and the GI50 [51] was > 100 µM (inactive). The GI50 [52] was > 100 µM (inactive), the GI50 [53] was > 100 µM (inactive) and the GI50 [54] was > 100 µM (inactive). For the same compound, the GI50 [55] was > 100 µM (inactive).
With `Cc1cc2c(cc1C)[n+]([O-])c(N1CCN(c3ccc([N+](=O)[O-])cc3)CC1)c(C#N)[n+]2[O-]` the GI50 [1] was 29.8 µM (inactive), the GI50 [2] was 61.7 µM (inactive) and the GI50 [3] was 16.6 µM (inactive). The GI50 [5] was 85.3 µM, the GI50 [7] was 83 µM (inactive) and the GI50 [8] was > 100 µM (inactive). For the same compound, the GI50 [10] was 41.7 µM (inactive), the GI50 [11] was > 100 µM (inactive) and the GI50 [12] was 25.2 µM (inactive). For the same compound, the GI50 [13] was 20.3 µM (inactive), the GI50 [14] was 13 µM (inactive) and the GI50 [15] was 18 µM (inactive). For the same compound, the GI50 [56] was 75.7 µM (inactive), the GI50 [16] was 34.6 µM (inactive) and the GI50 [17] was 15.3 µM (inactive). The GI50 [18] was > 100 µM (inactive), the GI50 [19] was 15 µM (inactive) and the GI50 [20] was > 100 µM (inactive). For the same compound, the GI50 [22] was 25.3 µM (inactive), the GI50 [23] was 4.61 µM (inactive) and the GI50 [24] was > 100 µM (inactive). The GI50 [25] was > 100 µM (inactive), the GI50 [26] was 16.3 µM (inactive) and the GI50 [27] was 17 µM (inactive). For the same compound, the GI50 [28] was 32.8 µM (inactive), the GI50 [29] was 28.6 µM (inactive) and the GI50 [30] was 26 µM (inactive). For the same compound, the GI50 [31] was 23.2 µM (inactive), the GI50 [32] was > 100 µM (inactive) and the GI50 [33] was 20 µM (inactive). For the same compound, the GI50 [57] was 35.6 µM (inactive), the GI50 [34] was > 100 µM (inactive) and the GI50 [35] was 35 µM (inactive). For the same compound, the GI50 [36] was 15.2 µM (inactive), the GI50 [37] was 32.3 µM (inactive) and the GI50 [58] was 23.5 µM (inactive). For the same compound, the GI50 [38] was 26.2 µM (inactive), the GI50 [39] was 69.5 µM (inactive) and the GI50 [40] was > 100 µM (inactive). The GI50 [41] was 15.2 µM (inactive), the GI50 [42] was 20.3 µM (inactive) and the GI50 [43] was 35.9 µM (inactive). For the same compound, the GI50 [44] was 26.2 µM (inactive), the GI50 [45] was 32.4 µM (inactive) and the GI50 [46] was 39.4 µM (inactive). The GI50 [47] was 14.1 µM (inactive), the GI50 [48] was 22 µM (inactive) and the GI50 [49] was 85.9 µM (inactive). For the same compound, the GI50 [50] was 35.3 µM (inactive), the GI50 [51] was 14.2 µM (inactive) and the GI50 [52] was > 100 µM (inactive). For the same compound, the GI50 [53] was 25.6 µM (inactive), the GI50 [54] was > 100 µM (inactive) and the GI50 [55] was 37.6 µM (inactive).
